Experimental data published in patent US11878965B2, “Inhibitors of peptidylarginine deiminases” (Gilead Sciences, Inc., priority 2020, dated 2024).

Biological target: human PAD4 (Homo sapiens (Human), UniProt Q9UM07)
Assay: In Vitro PAD4 BAEE Biochemical Assay
Settings: human PAD4, BAEE substrate; 5 nM PAD4, 2 mM calcium chloride, 3 mM BAEE; geometric mean of multiple experiments
Outline: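 Deimination of BAEE substrate (3 mM) measured as ammonia via o-phthalaldehyde–DTT isoindole fluorescence, 405/535 nm. Tag-free bacterially expressed human PAD4 at 5 nM with 2 mM calcium chloride, pH 7.6 MOPS buffer, 30 min compound preincubation then 2 h reaction, both at 25 °C.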

Sequence of human PAD4 (Q9UM07 2-663): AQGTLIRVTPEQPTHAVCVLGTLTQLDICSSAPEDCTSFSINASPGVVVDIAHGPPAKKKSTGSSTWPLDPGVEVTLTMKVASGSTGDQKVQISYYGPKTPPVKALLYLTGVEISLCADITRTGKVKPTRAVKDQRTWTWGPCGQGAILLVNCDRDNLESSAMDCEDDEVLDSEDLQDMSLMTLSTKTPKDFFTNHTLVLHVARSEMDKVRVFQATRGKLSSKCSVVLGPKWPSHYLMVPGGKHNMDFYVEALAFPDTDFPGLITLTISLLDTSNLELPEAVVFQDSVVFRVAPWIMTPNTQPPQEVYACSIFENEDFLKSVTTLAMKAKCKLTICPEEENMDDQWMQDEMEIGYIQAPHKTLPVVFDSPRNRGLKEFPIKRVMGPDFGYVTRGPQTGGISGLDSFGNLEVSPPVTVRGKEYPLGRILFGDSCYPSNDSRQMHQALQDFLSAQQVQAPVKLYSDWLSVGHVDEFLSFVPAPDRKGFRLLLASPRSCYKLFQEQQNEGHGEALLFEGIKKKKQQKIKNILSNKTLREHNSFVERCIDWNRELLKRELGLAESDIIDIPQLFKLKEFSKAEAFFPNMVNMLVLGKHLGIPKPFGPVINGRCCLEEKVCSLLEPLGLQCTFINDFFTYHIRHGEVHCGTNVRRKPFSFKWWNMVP

SMILES | IC50 [nM]
COc1cc(C(=O)N2[C@H]3CC[C@@H]2[C@H](N)C3)cc2nc(-c3cc4ccc([C@@H](C)NC(=O)C(C)(C)C)nc4n3CC3CC3)n(C)c12 [Example 120, N—((R)-1-(2-(5-((1R,2R,4S)-2-amino-7-azabicyclo[2.2.1]heptane-7-carbonyl)-7-methoxy-1-methyl-1H-benzo[d]imidazol-2-yl)-1-(cyclopropylmethyl)-1H-pyrrolo[2,3-b]pyridin-6-yl)ethyl)pivalamide] | 60.6
COc1cc(C(=O)N2[C@H]3CC[C@@H]2[C@H](N)C3)cc2nc(-c3cc4ccc([C@@H](C)NC(=O)C56CC(F)(C5)C6)nc4n3CC3CC3)n(C)c12 [Example 121, N-((R)-1-(2-(5-((1R,2R,4S)-2-amino-7-azabicyclo[2.2.1]heptane-7-carbonyl)-7-methoxy-1-methyl-1H-benzo[d]imidazol-2-yl)-1-(cyclopropylmethyl)-1H-pyrrolo[2,3-b]pyridin-6-yl)ethyl)-3-fluorobicyclo[1.1.1]pentane-1-carboxamide] | 46.3
COc1cc(C(=O)N2CCC[C@@H](N)C2)cc2nc(-c3cc4ccc([C@@H](C)NC(=O)C56CC(F)(C5)C6)nc4n3CC3CC3)n(C)c12 [Example 122, N-((R)-1-(2-(5-((R)-3-aminopiperidine-1-carbonyl)-7-methoxy-1-methyl-1H-benzo[d]imidazol-2-yl)-1-(cyclopropylmethyl)-1H-pyrrolo[2,3-b]pyridin-6-yl)ethyl)-3-fluorobicyclo[1.1.1]pentane-1-carboxamide] | 93.9
COc1cc(C(=O)N2[C@H]3CC[C@@H]2[C@H](N)C3)cc2nc(-c3cc4ccc([C@@H](C)NC(=O)c5ccccc5)nc4n3CC3CC3)n(C)c12 [Example 123, N-((R)-1-(2-(5-((1R,2R,4S)-2-amino-7-azabicyclo[2.2.1]heptane-7-carbonyl)-7-methoxy-1-methyl-1H-benzo[d]imidazol-2-yl)-1-(cyclopropylmethyl)-1H-pyrrolo[2,3-b]pyridin-6-yl)ethyl)benzamide] | 29.2
COc1cc(C(=O)N2CCC[C@@H](N)C2)cc2nc(-c3cc4ccc([C@@H](C)NC(=O)c5ccccc5)nc4n3CC3CC3)n(C)c12 [Example 124, N-((R)-1-(2-(5-((R)-3-aminopiperidine-1-carbonyl)-7-methoxy-1-methyl-1H-benzo[d]imidazol-2-yl)-1-(cyclopropylmethyl)-1H-pyrrolo[2,3-b]pyridin-6-yl)ethyl)benzamide] | 54.6
COc1cc(C(=O)N2CCC[C@@H](N)C2)cc2nc(-c3cc4ccc([C@@H](C)NC(=O)C56CC(F)(C5)C6)nc4n3CC3CC3)n(C3CC3)c12 [Example 125, N-((R)-1-(2-(5-((R)-3-aminopiperidine-1-carbonyl)-1-cyclopropyl-7-methoxy-1H-benzo[d]imidazol-2-yl)-1-(cyclopropylmethyl)-1H-pyrrolo[2,3-b]pyridin-6-yl)ethyl)-3-fluorobicyclo[1.1.1]pentane-1-carboxamide] | 71.3
COc1cc(C(=O)N2CCC[C@@H](N)C2)cc2nc(-c3cc4ccc([C@@H](C)NC(=O)c5ccccc5)nc4n3CC3CC3)n(C3CC3)c12 [Example 126, N-((R)-1-(2-(5-((R)-3-aminopiperidine-1-carbonyl)-1-cyclopropyl-7-methoxy-1H-benzo[d]imidazol-2-yl)-1-(cyclopropylmethyl)-1H-pyrrolo[2,3-b]pyridin-6-yl)ethyl)benzamide] | 90.8
COc1cc(C(=O)N2[C@H]3CC[C@@H]2[C@H](N)C3)cc2nc(-c3cc4ccc([C@@H](C)NC(=O)C(C)(C)C)nc4n3CC3CC3)n(C3CC3)c12 [Example 127, N-((R)-1-(2-(5-((1R,2R,4S)-2-amino-7-azabicyclo[2.2.1]heptane-7-carbonyl)-1-cyclopropyl-7-methoxy-1H-benzo[d]imidazol-2-yl)-1-(cyclopropylmethyl)-1H-pyrrolo[2,3-b]pyridin-6-yl)ethyl)pivalamide] | 63.7
COc1cc(C(=O)N2CCC[C@@H](N)C2)cc2nc(-c3cc4ccc([C@@H](C)NC(=O)C(C)(C)C)nc4n3CC3CC3)n(C3CC3)c12 [Example 128, N-((R)-1-(2-(5-((R)-3-aminopiperidine-1-carbonyl)-1-cyclopropyl-7-methoxy-1H-benzo[d]imidazol-2-yl)-1-(cyclopropylmethyl)-1H-pyrrolo[2,3-b]pyridin-6-yl)ethyl)pivalamide] | 61.5
COc1cc(C(=O)N2[C@H]3CC[C@@H]2[C@H](N)C3)cc2nc(-c3cc4ccc([C@@H](C)NC(=O)c5ccccc5)nc4n3CC3CC3)n(C3CC3)c12 [Example 129, N-((R)-1-(2-(5-((1R,2R,4S)-2-amino-7-azabicyclo[2.2.1]heptane-7-carbonyl)-1-cyclopropyl-7-methoxy-1H-benzo[d]imidazol-2-yl)-1-(cyclopropylmethyl)-1H-pyrrolo[2,3-b]pyridin-6-yl)ethyl)benzamide] | 86
COc1cc(C(=O)N2[C@H]3CC[C@@H]2[C@H](N)C3)cc2nc(-c3cc4ccc([C@@H](C)NC(=O)C56CC(F)(C5)C6)nc4n3CC3CC3)n(C3CC3)c12 [Example 130, N-((R)-1-(2-(5-((1R,2R,4S)-2-amino-7-azabicyclo[2.2.1]heptane-7-carbonyl)-1-cyclopropyl-7-methoxy-1H-benzo[d]imidazol-2-yl)-1-(cyclopropylmethyl)-1H-pyrrolo[2,3-b]pyridin-6-yl)ethyl)-3-fluorobicyclo[1.1.1]pentane-1-carboxamide] | 45.1
COc1cc(C(=O)N2[C@H]3CC[C@@H]2[C@H](N)C3)cc2nc(-c3cc4ccc([C@@H](C)NC(C)=O)nc4n3CC3CC3)n(C3CC3)c12 [Example 131, N-((R)-1-(2-(5-((1R,2R,4S)-2-amino-7-azabicyclo[2.2.1]heptane-7-carbonyl)-1-cyclopropyl-7-methoxy-1H-benzo[d]imidazol-2-yl)-1-(cyclopropylmethyl)-1H-pyrrolo[2,3-b]pyridin-6-yl)ethyl)acetamide] | 25.9
COc1cc(C(=O)N2CCC[C@@H](N)C2)cc2nc(-c3cc4ccc([C@@H](C)NC(C)=O)nc4n3CC3CC3)n(C3CC3)c12 [Example 132, N-((R)-1-(2-(5-((R)-3-aminopiperidine-1-carbonyl)-1-cyclopropyl-7-methoxy-1H-benzo[d]imidazol-2-yl)-1-(cyclopropylmethyl)-1H-pyrrolo[2,3-b]pyridin-6-yl)ethyl)acetamide] | 70.7
COc1cc(C(=O)N2[C@H]3CC[C@@H]2[C@H](N)C3)cc2nc(-c3cc4ccc([C@@H](C)NC(=O)C56CC(F)(C5)C6)cc4n3CC3CC3)n(C)c12 [Example 133, N-((R)-1-(2-(5-((1R,2R,4S)-2-amino-7-azabicyclo[2.2.1]heptane-7-carbonyl)-7-methoxy-1-methyl-1H-benzo[d]imidazol-2-yl)-1-(cyclopropylmethyl)-1H-indol-6-yl)ethyl)-3-fluorobicyclo[1.1.1]pentane-1-carboxamide] | 32.2
COc1cc(C(=O)N2[C@H]3CC[C@@H]2[C@H](N)C3)cc2nc(-c3cc4ccc([C@@H](C)NC(=O)C56CC(C#N)(C5)C6)cc4n3CC3CC3)n(C)c12 [Example 134, N-((R)-1-(2-(5-((1R,2R,4S)-2-amino-7-azabicyclo[2.2.1]heptane-7-carbonyl)-7-methoxy-1-methyl-1H-benzo[d]imidazol-2-yl)-1-(cyclopropylmethyl)-1H-indol-6-yl)ethyl)-3-cyanobicyclo[1.1.1]pentane-1-carboxamide] | 18.2
COc1cc(C(=O)N2[C@H]3CC[C@@H]2[C@H](N)C3)cc2nc(-c3cc4ccc([C@@H](C)NC(=O)c5cnn(C)c5)cc4n3CC3CC3)n(C)c12 [Example 135, N-((R)-1-(2-(5-((1R,2R,4S)-2-amino-7-azabicyclo[2.2.1]heptane-7-carbonyl)-7-methoxy-1-methyl-1H-benzo[d]imidazol-2-yl)-1-(cyclopropylmethyl)-1H-indol-6-yl)ethyl)-1-methyl-1H-pyrazole-4-carboxamide] | 13
COc1cc(C(=O)N2[C@H]3CC[C@@H]2[C@H](N)C3)cc2nc(-c3cc4ccc([C@@H](C)NC(=O)c5ccccc5)cc4n3CC3CC3)n(C)c12 [Example 136, N-((R)-1-(2-(5-((1R,2R,4S)-2-amino-7-azabicyclo[2.2.1]heptane-7-carbonyl)-7-methoxy-1-methyl-1H-benzo[d]imidazol-2-yl)-1-(cyclopropylmethyl)-1H-indol-6-yl)ethyl)benzamide] | 27.6
COc1cc(C(=O)N2CCC[C@@H](N)C2)cc2nc(-c3cc4ccc([C@@H](C)NC(=O)c5ccccc5)cc4n3CC3CC3)n(C)c12 [Example 137, N-((R)-1-(2-(5-((R)-3-aminopiperidine-1-carbonyl)-7-methoxy-1-methyl-1H-benzo[d]imidazol-2-yl)-1-(cyclopropylmethyl)-1H-indol-6-yl)ethyl)benzamide] | 37.2
COc1cc(C(=O)N2[C@H]3CC[C@@H]2[C@H](N)C3)cc2nc(-c3cc4ccc([C@@H](C)NC(=O)c5cnc(C)o5)cc4n3CC3CC3)n(C)c12 [Example 138, N-((R)-1-(2-(5-((1R,2R,4S)-2-amino-7-azabicyclo[2.2.1]heptane-7-carbonyl)-7-methoxy-1-methyl-1H-benzo[d]imidazol-2-yl)-1-(cyclopropylmethyl)-1H-indol-6-yl)ethyl)-2-methyloxazole-5-carboxamide] | 27.6
COc1cc(C(=O)N2[C@H]3CC[C@@H]2[C@H](N)C3)cc2nc(-c3cc4ccc([C@@H](C)NC(=O)c5cnn(C(F)F)c5)cc4n3CC3CC3)n(C)c12 [Example 139, N-((R)-1-(2-(5-((1R,2R,4S)-2-amino-7-azabicyclo[2.2.1]heptane-7-carbonyl)-7-methoxy-1-methyl-1H-benzo[d]imidazol-2-yl)-1-(cyclopropylmethyl)-1H-indol-6-yl)ethyl)-1-(difluoromethyl)-1H-pyrazole-4-carboxamide] | 28.9
